Measured values reported in ChEMBL document CHEMBL1133044, “Nonpeptide GPIIB/IIIA receptor antagonists. Part 21: C-6 flexibility and amide bond orientation are important factors in determining the affinity of compounds for activated or resting platelet receptors” (Bioorg Med Chem Lett, 2000).

What was measured:
[1] = molecular target: T1, Integrin alpha-IIb/beta-3 (Homo sapiens, UniProt P05106+P08514); assay: Selectivity as determined by the ratio of KDs, resting receptor over activated receptor; format: protein-complex assay
[2] = molecular target: T1, Integrin alpha-IIb/beta-3; assay: Competition with [1251]L-692,884 for binding to purified alpha IIb/beta3 integrin, activated by coating onto yttrium silicate scintillation proximity assay fluomicrospheres.; format: protein-complex assay
Target sequence in this assay (P05106 27-788 limits assumed): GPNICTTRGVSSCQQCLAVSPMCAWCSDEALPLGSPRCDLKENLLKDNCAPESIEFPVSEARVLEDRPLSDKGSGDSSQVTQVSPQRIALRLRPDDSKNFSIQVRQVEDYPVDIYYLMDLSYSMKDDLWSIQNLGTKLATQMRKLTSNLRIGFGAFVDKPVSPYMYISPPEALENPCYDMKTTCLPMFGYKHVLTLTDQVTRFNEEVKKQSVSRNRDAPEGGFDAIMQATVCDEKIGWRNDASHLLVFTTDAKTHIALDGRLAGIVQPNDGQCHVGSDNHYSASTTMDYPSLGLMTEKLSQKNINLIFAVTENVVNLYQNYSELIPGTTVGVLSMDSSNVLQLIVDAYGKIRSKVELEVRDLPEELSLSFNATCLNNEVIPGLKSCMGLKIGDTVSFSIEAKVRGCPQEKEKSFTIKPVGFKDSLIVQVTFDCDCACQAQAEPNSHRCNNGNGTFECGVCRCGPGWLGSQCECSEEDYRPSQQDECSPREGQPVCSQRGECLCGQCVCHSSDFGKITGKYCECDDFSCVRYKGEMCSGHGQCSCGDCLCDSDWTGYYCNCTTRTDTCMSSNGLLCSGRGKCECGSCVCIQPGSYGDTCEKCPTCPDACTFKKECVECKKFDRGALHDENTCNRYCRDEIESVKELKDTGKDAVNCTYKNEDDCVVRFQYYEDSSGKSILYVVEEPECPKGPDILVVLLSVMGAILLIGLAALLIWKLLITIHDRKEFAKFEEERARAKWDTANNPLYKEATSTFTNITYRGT
Target sequence in this assay (P08514 32-887 limits assumed): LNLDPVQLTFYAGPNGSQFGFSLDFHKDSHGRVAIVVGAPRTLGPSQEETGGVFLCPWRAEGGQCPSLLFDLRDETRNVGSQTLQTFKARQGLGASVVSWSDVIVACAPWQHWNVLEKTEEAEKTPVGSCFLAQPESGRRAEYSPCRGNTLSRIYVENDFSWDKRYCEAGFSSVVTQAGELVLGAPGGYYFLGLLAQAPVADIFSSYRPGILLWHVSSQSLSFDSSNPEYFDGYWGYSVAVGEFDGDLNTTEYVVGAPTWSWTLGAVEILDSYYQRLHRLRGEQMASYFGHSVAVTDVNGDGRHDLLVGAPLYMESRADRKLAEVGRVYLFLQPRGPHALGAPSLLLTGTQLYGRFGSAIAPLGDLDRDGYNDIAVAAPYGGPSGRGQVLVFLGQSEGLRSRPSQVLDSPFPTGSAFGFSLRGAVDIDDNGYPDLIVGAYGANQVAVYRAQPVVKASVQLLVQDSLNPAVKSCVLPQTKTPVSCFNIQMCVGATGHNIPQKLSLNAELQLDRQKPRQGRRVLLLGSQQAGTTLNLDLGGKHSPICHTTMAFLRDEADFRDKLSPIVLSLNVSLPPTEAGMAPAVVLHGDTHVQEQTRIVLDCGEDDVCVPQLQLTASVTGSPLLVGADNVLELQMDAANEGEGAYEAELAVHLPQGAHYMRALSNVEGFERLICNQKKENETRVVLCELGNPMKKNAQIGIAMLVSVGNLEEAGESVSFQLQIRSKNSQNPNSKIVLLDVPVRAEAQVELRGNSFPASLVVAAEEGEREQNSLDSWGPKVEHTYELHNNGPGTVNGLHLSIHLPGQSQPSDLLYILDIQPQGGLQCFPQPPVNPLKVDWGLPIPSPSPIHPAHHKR
Target sequence in this assay (P08514 891-1039 limits assumed): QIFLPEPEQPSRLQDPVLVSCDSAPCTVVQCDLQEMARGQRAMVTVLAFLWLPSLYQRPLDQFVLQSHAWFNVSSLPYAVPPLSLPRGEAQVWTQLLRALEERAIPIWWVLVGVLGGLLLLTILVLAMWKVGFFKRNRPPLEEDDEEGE

[3] = molecular target: T1, Integrin alpha-IIb/beta-3; assay: Binding affinity to resting form of alpha IIb/beta3 integrin by flow cytometry using fluorescein ligand L-726,745 displacement from human platelets.
Target sequence in this assay (P05106 27-788 limits assumed): as the sequence (P05106 27-788 limits assumed) above
Target sequence in this assay (P08514 32-887 limits assumed): as the sequence (P08514 32-887 limits assumed) above
Target sequence in this assay (P08514 891-1039 limits assumed): as the sequence (P08514 891-1039 limits assumed) above

[4] = Inhibition of aggregation of human gel-filtered platelets measured by light transmittance method at 37 degrees C.

SMILES	Selectivity [1]	Kd [2]	Kd [3]	IC50 [4]
C#C[C@H](CC(=O)O)NC(=O)CN1CCC[C@@H](CCC2CCNCC2)C1=O	244	0.86 nM	210 nM	–
O=C(O)C[C@H](NC(=O)CN1CCC[C@@H](CCC2CCNCC2)C1=O)c1cccnc1	221	0.38 nM	84 nM	–
C#C[C@H](CC(=O)O)NC(=O)c1ccc2c(c1)C(=O)N(CCc1ccnc(N)c1)C2	38	2.2 nM	84 nM	–
O=C(NC[C@H](NS(=O)(=O)c1ccccc1)C(=O)O)c1ccc2c(c1)C(=O)N(CCC1CCNCC1)C2	12	0.25 nM	3.1 nM	–
C#CC(CCCN1CCC[C@@H](CCC2CCNCC2)C1=O)CC(=O)O (stereo partly specified)	344	9 nM	3100 nM	–
O=C(O)C[C@H](NC(=O)CN1CCc2ccc(N3CCNCC3)cc2C1=O)c1cccnc1	14	0.25 nM	3.4 nM	–
O=C(NC[C@H](NS(=O)(=O)c1ccccc1)C(=O)O)c1ccc(OCCC2CCNCC2)cc1	15	0.16 nM	2.4 nM	–
O=C(CN1CCC[C@@H](CCC2CCNCC2)C1=O)NC[C@H](NS(=O)(=O)c1ccccc1)C(=O)O	19	0.78 nM	15 nM	–
O=C(O)CCNC(=O)c1ccc2c(c1)C(=O)N(CCC1CCNCC1)C2	9	13 nM	120 nM	27 nM
O=C(O)CCNC(=O)c1cc2n(n1)CCCN(CCC1CCNCC1)C2=O	14	46 nM	–	470 nM
Cc1ccc(S(=O)(=O)N[C@@H](CNC(=O)c2cc3n(n2)CCCN(CCC2CCNCC2)C3=O)C(=O)O)cc1	18	0.08 nM	–	–
C#C[C@H](CC(=O)O)NC(=O)CN1CCC[C@@H](CCc2ccnc(N)c2)C1=O	435	0.78 nM	340 nM	–
O=C(O)C[C@@H](CO)NC(=O)c1ccc2c(c1)C(=O)N(CCC1CCNCC1)C2	2	21 nM	47 nM	–
C[C@H](CC(=O)O)NC(=O)CN1CCC[C@@H](CCC2CCNCC2)C1=O	140	–	640 nM	–
O=C(O)C[C@@H](CO)NC(=O)CN1CCc2ccc(N3CCNCC3)cc2C1=O	> 67	15 nM	> 1000 nM	–
O=C(NC[C@H](NS(=O)(=O)c1ccccc1)C(=O)O)c1cc2cc(CCC3CCNCC3)sc2s1	23	0.09 nM	2.1 nM	8 nM
O=C(CN1CCc2ccc(N3CCNCC3)cc2C1=O)NC[C@H](NS(=O)(=O)c1ccccc1)C(=O)O	1.9	6.7 nM	13 nM	–
C#C[C@H](CC(=O)O)NC(=O)C[C@H]1CCCN(CCC2CCNCC2)C1=O	18	0.34 nM	6.1 nM	–
O=C(O)C[C@H](NC(=O)C[C@H]1CCCN(CCC2CCNCC2)C1=O)c1cccnc1	37	0.3 nM	11 nM	–
C#C[C@H](CC(=O)O)NC(=O)C[C@H]1CCCN(CCc2ccnc(N)c2)C1=O	230	0.26 nM	60 nM	–
O=C(NC[C@H](NS(=O)(=O)c1ccccc1)C(=O)O)c1cc2cc(OCCC3CCNCC3)ccc2[nH]1	24	0.056 nM	1.3 nM	–
C#C[C@H](CC(=O)O)NC(=O)CN1CCc2ccc(N3CCNCC3)cc2C1=O	89	0.56 nM	50 nM	–
O=C(O)CCNC(=O)CN1CCc2ccc(N3CCNCC3)cc2C1=O	–	9.7 nM	–	–
C#CC(CC(=O)O)NC(=O)CN(C(=O)c1cccc(C2CCNCC2)c1)C1CC1 (stereo unspecified)	141	0.85 nM	120 nM	–
CC(CC(=O)O)NC(=O)c1ccc2c(c1)C(=O)N(CCC1CCNCC1)C2 (stereo unspecified)	0.8	64 nM	49 nM	–
C[C@@H](/C=C/CN1CCC[C@@H](CCC2CCNCC2)C1=O)CC(=O)O	192	12 nM	2300 nM	–
